Literature values, collected in US20140288899A1, “C[…] OF BINDING FREE ENERGY, C[…] OF BINDING FREE ENERGY, PROGRAM, SCREENING METHOD OF COMPOUND” (FUJITSU LIMITED, priority 2013, published 2014).

How the values were obtained:
FK506 BINDING PROTEIN [1] = target: T1, FK506 BINDING PROTEIN (Homo sapiens, UniProt P62942); conditions: experimental value disclosed in Holt et al., J. Am. Chem. Soc. 1993, 115, 9925-9938
FK506 BINDING PROTEIN [2] = target: T1, FK506 BINDING PROTEIN; conditions: calculation value of Wang et al., Biophysical Journal Vol. 91, 2798-2814; restriction with a spring

T1 sequence (P62942 whole entry): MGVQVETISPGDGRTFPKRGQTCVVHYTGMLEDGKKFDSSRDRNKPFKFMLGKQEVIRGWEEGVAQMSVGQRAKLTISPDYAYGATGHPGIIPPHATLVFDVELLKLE

CCC(C)(C)C(=O)C(=O)N1CCCC[C@H]1C(=O)O[C@H](CCc1ccccc1)c1ccccc1 [1fkg, 1,3-DIPHENYL-1-PROPYL-1-(3,3-DIMETHYL-1,2-DIOXYPENTYL)-2-PIPERIDINE CARBOXYLATE]
binding free energy, experimental value (FK506 BINDING PROTEIN [1]): -10.9 kcal/mol | binding free energy, calculation result of Comparative Example (FK506 BINDING PROTEIN [2]): -10.3 kcal/mol
